In assay [1] the test system is Acinetobacter baumannii ATCC 17978. The experiment in a line: microbe, parasite or virus in culture. The class given is cell-based. The settings on record: for Potentiation fold / MIC in presence of colistin: A. baumannii ATCC 17978; for Potentiation fold: ratio MICcompound/MICcompound+polymyxin E; for MIC in presence of colistin: with 0.25xMIC polymyxin E1 (0.25 mg/L); for MIC: Acinetobacter baumannii, ATCC17978. The method in brief:
(§1)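 MICs were determined by CLSI M07 broth dilution, for each compound alone and with a fixed sub-inhibitory concentration of polymyxin E1 (colistin). Potentiation fold is the MIC alone divided by the MIC with polymyxin E.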

The next assay deals with Escherichia coli CCUG^T. The assay can be described thus: microbe, parasite or virus in culture. It counts as cell-based. The following applies: for MIC: Escherichia coli. The method in brief: as §1
Assay [2] concerns Klebsiella pneumoniae ATCC 13833. The experiment in a line: microbe, parasite or virus in culture. The class given is cell-based. The settings on record: for Potentiation fold / MIC in presence of colistin: K. pneumoniae ATCC 13833; for Potentiation fold: ratio MICcompound/MICcompound+polymyxin E; for MIC in presence of colistin: with 0.25xMIC polymyxin E1 (0.12 mg/L); for MIC: Klebsiella pneumoniae, ATCC13833. The method in brief: as §1

In the next assay the test system is K. pneumoniae SI-4B. The experiment in a line: Chequerboard analysis with polymyxin E1 (average FIC index). The following applies: K. pneumoniae SI-4B (colistin-resistant); compound + polymyxin E1. The class given is cell-based, Klebsiella pneumoniae.
Another assay deals with K. pneumoniae SI-27. Described as above. The following applies: K. pneumoniae SI-27 (colistin-resistant); compound + polymyxin E1. It counts as cell-based, Klebsiella pneumoniae.
For assay [3], the system named is Bacillus subtilis ATCC 6633. The experiment in a line: MIC, broth microdilution (direct antibacterial activity). The class given is cell-based. The settings on record: ATCC6633. As for the experimental part:
(§2) Growth inhibition or killing of bacteria was investigated using conventional methods widely described in the scientific literature. Parameters such as the Minimum Inhibitory Concentration (MIC) were determined as described in Clinical Laboratory Standard Institute (CLSI) document M07 “Methods for Dilution Antimicrobial Susceptibility Tests for Bacteria That Grow Aerobically, 11th Edition” (2018). Synergistic activity of the compounds described in the present specification were determined by measuring the variation of the MIC's compound in the absence and presence of a sub-inhibitory concentration of a suitable antibacterial agent, such as polymyxin E1. Furthermore, the Fractional Inhibitory Concentrations (FICs) were measured using a chequerboard analysis to determine the average FIC index (FICI), whose value is known to characterize the interaction between two compounds and/or drugs (≤0.5, synergistic interaction; >0.5 and <2, no interaction, additive effect; ≥2, antagonistic interaction). Furthermore, the selectivity of the compounds was investigated by measuring their cytotoxic effect on mammalian cell lines (e.g. HeLa cells).
(§3) The MIC values were determined using the broth microdilution method as described in document M07 using Mueller-Hinton broth as culture medium and an initial bacterial inoculum size of 5×10^5 CFU/mL, with a final volume of 100 μL per well in a 96-well microplate. Bacterial strains were Bacillus subtilis ATCC 6633, Enterococcus faecalis ATCC 29212, Streptococcus pyogenes ATCC 12344 and Staphylococcus aureus ATCC 25923. The tested compound concentration ranged from 512 to 0.25 mg/L. Plates were incubated for 18-24 hours at 35±2° C. prior to results analysis.
In general terms: Dilution methods test growth across graded concentrations, often in twofold steps.

In assay [4] the test system is Enterococcus faecalis ATCC 29212. The assay is described as above. The class given is cell-based. The following applies: ATCC29212. As for the experimental part:
as §2, §3

Assay [5] relates to Staphylococcus aureus ATCC 25923. The description is as above. The settings on record: ATCC25923. The class given is cell-based. The protocol:
as §2, §3

Assay [6] concerns Streptococcus pyogenes ATCC 12344. The assay is described as above. It counts as cell-based. The settings on record: ATCC12344. The protocol:
as §2, §3

The next assay concerns K. pneumoniae ATCC 13833. The experiment in a line: Chequerboard analysis with polymyxin E1 (average FIC index). The class given is cell-based, Klebsiella pneumoniae. The following applies: compound + polymyxin E1.
In a further assay the test system is A. baumannii ATCC 17978. The assay is described as above. The class given is cell-based, Acinetobacter baumannii. The settings on record: compound + polymyxin E1.

Regarding `CCCCn1c(=O)c(C(=O)NC23CC4CC(CC(C4)C2)C3)c(O)c2nn(CCO)cc21` [Im, N-(Adamantan-1-yl)-4-(1-butyl)-4,5-dihydro-7-hydroxy-2-(2-hydroxyethyl)-5-oxo-2H-pyrazolo[4,3-b]pyridin-6-carboxamide], the Potentiation fold in assay [1] and in assay [2] was at least 64 in each case. The “MIC in presence of colistin” value in assay [1] and in assay [2] was 8 µg/mL in each case. In addition, the MIC (in assay [1]; with Escherichia coli CCUG^T; in assay [2]) was above 512 µg/mL each time. In addition, the “Average FIC index” value with K. pneumoniae SI-4B is on record as 0.31; with K. pneumoniae SI-27, 0.41.
Regarding `CC(C)n1c(=O)c(C(=O)NC23CC4CC(CC(C4)C2)C3)c(O)c2nn(C)cc21` [Ix, N-(Adamantan-1-yl)-4,5-dihydro-7-hydroxy-2-methyl-5-oxo-4-(2-propyl)-2H-pyrazolo[4,3-b]pyridin-6-carboxamide], the MIC was 64 µg/mL in [3]; 32 µg/mL in assay [4]; 128 µg/mL in assay [5]; 32 µg/mL in [6]; above 512 µg/mL in assay [1]; above 512 µg/mL in the assay with Escherichia coli CCUG^T. Further, in assay [2], the MIC is above 512 µg/mL. Moreover, the Potentiation fold in [1] is listed as at least 64; in the assay on Escherichia coli CCUG^T (E. coli CCUG^T, ratio MICcompound/MICcompound+polymyxin E) it was at least 64; in [2], at least 64. Moreover, the “MIC in presence of colistin” value in assay [1] stood at 8 µg/mL; with Escherichia coli CCUG^T (E. coli CCUG^T, with 0.25xMIC polymyxin E1 (0.12 mg/L)), 8 µg/mL; in assay [2], 8 µg/mL. For the same compound, the “Average FIC index” value with K. pneumoniae ATCC 13833 is 0.33; in the assay with A. baumannii ATCC 17978 it was 0.27; with K. pneumoniae SI-4B, 0.39.

Values taken from US12358919B2, “Antibacterial compounds” (Universita' degli Studi di Siena, priority 2019, dated 2025).
